pEC50, pIC50, pKd: −log10 of the molar value. Where two headings read alike, the source gives them in different places.
What was measured:
human α2A‐adrenoceptor [1] = target: T1, human α2A‐adrenoceptor (Homo sapiens, UniProt P08913); settings: for % inhibition, CRE‐SPAP (with forskolin): % inhibition from the 3 μM forskolin control, inhibition only; for Log efficacy ratio (KD/IC50): CHO‐α2A, binding KD / Gi IC50 of CRE‐SPAP; for pIC50: Log IC50 (Gi), CRE‐SPAP (with forskolin), CHO‐α2A (cell line 1, 5830 fmol/mg protein), 3 μM forskolin
T1 sequence (P08913 1-465): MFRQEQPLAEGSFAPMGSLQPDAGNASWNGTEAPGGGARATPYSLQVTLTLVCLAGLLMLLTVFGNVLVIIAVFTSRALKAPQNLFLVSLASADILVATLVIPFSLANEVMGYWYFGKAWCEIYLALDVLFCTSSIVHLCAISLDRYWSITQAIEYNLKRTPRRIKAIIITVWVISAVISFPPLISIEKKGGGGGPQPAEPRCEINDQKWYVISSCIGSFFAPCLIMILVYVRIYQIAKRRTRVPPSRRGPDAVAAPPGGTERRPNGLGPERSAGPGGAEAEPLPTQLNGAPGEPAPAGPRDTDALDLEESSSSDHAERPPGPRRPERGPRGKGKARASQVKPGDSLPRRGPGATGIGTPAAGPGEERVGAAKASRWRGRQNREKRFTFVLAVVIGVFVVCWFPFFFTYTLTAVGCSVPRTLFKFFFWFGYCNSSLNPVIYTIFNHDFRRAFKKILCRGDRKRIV

human α2C‐adrenoceptor [2] = target: T2, human α2C‐adrenoceptor (Homo sapiens, UniProt P18825); settings: for pIC50: Log IC50 (Gi), CRE‐SPAP (with forskolin), inhibition of 3 μM forskolin‐stimulated CRE‐SPAP production, given as negative log IC50, mean ± SEM
T2 sequence (P18825 1-462): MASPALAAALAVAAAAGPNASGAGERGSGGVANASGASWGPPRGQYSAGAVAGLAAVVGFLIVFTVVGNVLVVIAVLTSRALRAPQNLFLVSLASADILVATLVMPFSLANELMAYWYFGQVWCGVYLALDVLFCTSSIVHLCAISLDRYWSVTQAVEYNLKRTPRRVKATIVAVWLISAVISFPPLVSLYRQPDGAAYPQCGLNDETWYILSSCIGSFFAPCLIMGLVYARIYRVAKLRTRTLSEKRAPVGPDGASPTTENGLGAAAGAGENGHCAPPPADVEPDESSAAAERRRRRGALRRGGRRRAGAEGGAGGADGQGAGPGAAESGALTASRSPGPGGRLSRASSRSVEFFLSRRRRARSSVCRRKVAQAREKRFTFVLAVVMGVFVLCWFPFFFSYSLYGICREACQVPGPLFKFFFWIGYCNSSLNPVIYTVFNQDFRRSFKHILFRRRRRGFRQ

human α2A‐adrenoceptor [3] = target: T1, human α2A‐adrenoceptor; assay: 3H‐rauwolscine whole cell binding in CHO‐α2A cells; design: expressed in transfected cells; host or cells: CHO-K1 with CRE-SPAP reporter; settings: for Kd: 3H‐rauwolscine whole cell binding
human α2C‐adrenoceptor [4] = target: T2, human α2C‐adrenoceptor; assay: 3H‐rauwolscine whole cell binding in CHO‐α2C cells; design: expressed in transfected cells; host or cells: CHO-K1 with CRE-SPAP reporter; settings: for Kd: 3H‐rauwolscine whole cell binding
human α2A‐adrenoceptor [5] = target: T1, human α2A‐adrenoceptor; assay: ERK1/2‐phosphorylation in CHO‐α2A cells; format: cell-based; design: expressed in transfected cells; host or cells: CHO-K1 with CRE-SPAP reporter; settings: for EC50: read-out: Log EC50, ERK1/2‐phosphorylation (converted)
human α2C‐adrenoceptor [6] = target: T2, human α2C‐adrenoceptor; assay: ERK1/2‐phosphorylation in CHO‐α2C cells; format: cell-based; design: expressed in transfected cells; host or cells: CHO-K1 with CRE-SPAP reporter; settings: for EC50: given as negative log EC50, mean ± SEM, read-out: Log EC50, ERK1/2‐phosphorylation (converted)
[7] = CHO‐α2A (cell line 1), absence of forskolin
[8] = CHO‐α2C cells, % inhibition from the 3 μM forskolin control, mean ± SEM
[9] = CHO‐α2C cells, CRE‐SPAP production in the absence of forskolin
[10] = CHO‐α2C cells, log KD from 3H‐rauwolscine binding versus CRE‐SPAP log IC50
[11] = living cells, negative log KD, mean ± SEM, read-out: Log KD, CHO‐α2A (converted)
[12] = CHO‐α2A, given as negative log KD, read-out: Log KD (binding) (converted)
[13] = fold, from KD values, 1 = no selectivity
[14] = living cells, negative log KD, mean ± SEM, read-out: Log KD, CHO‐α2C (converted)
[15] = CHO‐α2C cells, given as negative log KD, mean only (SEM in Table 4), read-out: Log KD (converted)
[16] = CHO‐α2A, maximum response compared to 10 μM PDBu
[17] = CHO‐α2C cells, maximum response compared to 10 μM PDBu, mean ± SEM

SMILES | Log EC50 (Gs), CRE‐SPAP (without forskolin) (human α2A‐adrenoceptor [1]) | Log IC50 (Gi), CRE‐SPAP (with forskolin) (human α2A‐adrenoceptor [1]) | Log EC50 (Gs), CRE‐SPAP (without forskolin) (human α2C‐adrenoceptor [2]) | Log IC50 (Gi), CRE‐SPAP (with forskolin) (human α2C‐adrenoceptor [2]) | % inhibition, CRE‐SPAP (with forskolin) (human α2A‐adrenoceptor [1]; CHO‐α2A (cell line 1)) | Log EC50 (Gs), CRE‐SPAP (without forskolin) (human α2A‐adrenoceptor [1]; [7]) | Log efficacy ratio (KD/IC50) (human α2A‐adrenoceptor [1]) | pIC50 (human α2A‐adrenoceptor [1]) | % inhibition, CRE‐SPAP (with forskolin) (human α2C‐adrenoceptor [2]; [8]) | Log EC50 (Gs), CRE‐SPAP (without forskolin) (human α2C‐adrenoceptor [2]; [9]) | Log efficacy ratio (KD/IC50) (human α2C‐adrenoceptor [2]; [10]) | pIC50 (human α2C‐adrenoceptor [2]; CHO‐α2C cells) | Kd (human α2A‐adrenoceptor [3]; [12]) | Selectivity ratio α2A vs α2B (higher affinity for α2A) (human α2A‐adrenoceptor [3]; [13]) | Kd (human α2C‐adrenoceptor [4]; [15]) | Selectivity ratio α2B vs α2C (higher affinity for α2C) (human α2C‐adrenoceptor [4]; [13]) | % 10 μM PDBu, ERK1/2‐phosphorylation (human α2A‐adrenoceptor [5]; [16]) | EC50 (human α2A‐adrenoceptor [5]; CHO‐α2A) | % 10 μM PDBu, ERK1/2‐phosphorylation (human α2C‐adrenoceptor [6]; [17]) | EC50 (human α2C‐adrenoceptor [6]; CHO‐α2C cells) | also measured
CN[C@@H](C)[C@H](O)c1ccccc1 [Ephedrine] | No response | No response | No response | No response | – | – | – | – | – | – | – | – | – | – | – | – | – | – | – | – | pKd (human α2A‐adrenoceptor [3]): 4.46; Selectivity ratio α2A vs α2B (higher affinity for α2A) (human α2A‐adrenoceptor [3]): 4.2; Selectivity ratio α2A vs α2C (higher affinity for α2A) (human α2A‐adrenoceptor [3]): 1.1; pKd (human α2A‐adrenoceptor [3]; Log KD, CHO‐α2A): 4.46; pKd (human α2C‐adrenoceptor [4]): 4.40; Selectivity ratio α2B vs α2C (higher affinity for α2C) (human α2C‐adrenoceptor [4]): 3.6; pKd (human α2C‐adrenoceptor [4]; Log KD, CHO‐α2C): 4.40; % 10 μM PDBu, ERK1/2‐phosphorylation (human α2A‐adrenoceptor [5]): 123.1 ± 17.3%; pEC50 (human α2A‐adrenoceptor [5]): 4.78; % 10 μM PDBu, ERK1/2‐phosphorylation (human α2C‐adrenoceptor [6]): 88.0 ± 12.5%; pEC50 (human α2C‐adrenoceptor [6]): 4.48
C1COC(NC(C2CC2)C2CC2)=N1 [Rilmenidine] | – | – | – | – | 94.2 ± 3.6% | No response | 0.96 | 6.77 | 69.0 ± 7.9% | No response | 0.52 | 6.33 | 1550 nM | 2.6 | 1550 nM | 2.6 | 144.0 ± 22.0% | 14.8 nM | 125.2 ± 15.6% | 49 nM | Kd (human α2A‐adrenoceptor [3]; [11]): 1550 nM; Selectivity ratio α2A vs α2C (higher affinity for α2A) (human α2A‐adrenoceptor [3]; [13]): 1.0; Kd (human α2C‐adrenoceptor [4]; [14]): 1550 nM
Nc1cc(Cl)c(N=C2NCCN2)c(Cl)c1 [Para‐amino‐clonidine] | −6.55 ± 0.10 | −8.74 ± 0.12 | No response | −8.09 ± 0.07 | – | – | – | – | – | – | – | – | – | – | – | – | – | – | – | – | % 3μM forskolin, CRE-SPAP (without forskolin) (human α2A‐adrenoceptor [1]): 12.9 ± 4.1%; % 3 μM forskolin, CRE‐SPAP (without forskolin) (human α2A‐adrenoceptor [1]): 37.6 ± 4.0%; % inhibition, CRE-SPAP (with forskolin) (human α2A‐adrenoceptor [1]): 67.5 ± 4.8%; Log EC50 (Gs), CRE-SPAP (with forskolin) (human α2A‐adrenoceptor [1]): -6.29 ± 0.32; Log EC50 (Gs), CRE‐SPAP (with forskolin) (human α2A‐adrenoceptor [1]): −6.81 ± 0.15; % inhibition, CRE‐SPAP (with forskolin) (human α2C‐adrenoceptor [2]): 82.3 ± 2.2%; Log efficacy ratio (KD/IC50) (human α2C‐adrenoceptor [2]): 1.78; Log KD (binding) (human α2A‐adrenoceptor [3]): −6.35; Log KD, CHO‐α2A (human α2A‐adrenoceptor [3]): −6.35 ± 0.03; Log KD (human α2C‐adrenoceptor [4]): −6.31; % 10 μM PDBu, ERK1/2‐phosphorylation (human α2A‐adrenoceptor [5]): 141.9 ± 10.6%; Log EC50, ERK1/2‐phosphorylation (human α2A‐adrenoceptor [5]): −9.58 ± 0.12; % 10 μM PDBu, ERK1/2‐phosphorylation (human α2C‐adrenoceptor [6]): 132.6 ± 16.1%; Log EC50, ERK1/2‐phosphorylation (human α2C‐adrenoceptor [6]): −8.68 ± 0.13
c1ccc2c(c1)CCCC2C1=NCCN1 (stereo not drawn) [Tetrahydrozoline] | – | – | – | – | 69.3 ± 7.2% | No response | 1.18 | 7.67 | 60.7 ± 3.2% | No response | 0.40 | 6.47 | 324 nM | 17.4 | 851 nM | 6.6 | 123.0 ± 12.8% | 3.63 nM | 139.6 ± 19.8% | 126 nM | Kd (human α2A‐adrenoceptor [3]; [11]): 324 nM; Selectivity ratio α2A vs α2C (higher affinity for α2A) (human α2A‐adrenoceptor [3]; [13]): 2.6; Kd (human α2C‐adrenoceptor [4]; [14]): 851 nM
CCNCC(O)c1cccc(O)c1 (stereo not drawn) [Etilefrine] | – | – | – | – | 101.3 ± 4.6% | No response | 0.61 | 4.32 | 86.2 ± 7.2% | No response | 1.01 | 4.92 | 195000 nM | 2.1 | 123000 nM | 3.4 | 150.8 ± 10.2% | 3240 nM | 182.2 ± 9.6% | 3160 nM | Kd (human α2A‐adrenoceptor [3]; ^app: apparent KD, IC50 from extrapolated curve as not all specific binding was inhibited, read-out: Log KD (apparent), CHO‐α2A (converted)): 195000 nM; Kd (human α2C‐adrenoceptor [4]; ^app: apparent KD, IC50 from extrapolated curve as not all specific binding was inhibited, read-out: Log KD (apparent), CHO‐α2C (converted)): 123000 nM; Selectivity ratio α2A vs α2C (higher affinity for α2C) (human α2C‐adrenoceptor [4]; [13]): 1.6

— publication PMC9471048, “The signaling and selectivity of α‐adrenoceptor agonists for the human α2A, α2B and α2C‐adrenoceptors and comparison with human α1 and β‐adrenoceptors” (Pharmacology Research & Perspectives, 2022)
